Experimental data as given in patent publication US9186318B2, “Quinolyl-containing hydroxamic acid compound and preparation method thereof, and pharmaceutical composition containing this compound and use thereof” (Beijing Konruns Pharmaceutical Co., Ltd, priority 2011, dated 2015).

Columns and labels:
Experiment in all cases: KinomeScan 96-kinase panel
Type in all cases: binding
Settings in all cases: compound concentration 1000 nM
JNK2 = JNK2 (Homo sapiens (Human), UniProt P45984)
Source text: (§1) The details of the screening technology were described in Fabian, M. A. et al, Nat., Biotechnol. 2005, 23, 329 and Karaman, M. W. et al, Nat., Biotechnol. 2008, 26, 127. From the above representative results, it can be seen that the compounds of the present invention have potent inhibitory activities on kinases including ALK, AXL, VEGFR2, PDGFR-α, PDGFR-β, c-KIT, Flt3, MEK1, MEK2, CSF1R, EPHA2, EPHA2, MKNK2, SRC, TIE2 and their mutants. Accordingly, the compounds of the present invention can be used for the treatment of diseases caused by abnormal activities of these kinases, e.g., cancer, psoriasis, hepatic cirrhosis, diabetes, diseases involving angiogenesis, eye diseases, immune system diseases, cardiovascular diseases, and so forth.

CDK11 = CDK11 (Homo sapiens (Human), UniProt Q9BWU1)
Source text: as §1

PLK4 = PLK4 (Homo sapiens (Human), UniProt O00444)
Source text: as §1

PDGFRA = PDGFRA (Homo sapiens (Human), UniProt P16234)
PDGFRA, sequence (P16234 24-1089): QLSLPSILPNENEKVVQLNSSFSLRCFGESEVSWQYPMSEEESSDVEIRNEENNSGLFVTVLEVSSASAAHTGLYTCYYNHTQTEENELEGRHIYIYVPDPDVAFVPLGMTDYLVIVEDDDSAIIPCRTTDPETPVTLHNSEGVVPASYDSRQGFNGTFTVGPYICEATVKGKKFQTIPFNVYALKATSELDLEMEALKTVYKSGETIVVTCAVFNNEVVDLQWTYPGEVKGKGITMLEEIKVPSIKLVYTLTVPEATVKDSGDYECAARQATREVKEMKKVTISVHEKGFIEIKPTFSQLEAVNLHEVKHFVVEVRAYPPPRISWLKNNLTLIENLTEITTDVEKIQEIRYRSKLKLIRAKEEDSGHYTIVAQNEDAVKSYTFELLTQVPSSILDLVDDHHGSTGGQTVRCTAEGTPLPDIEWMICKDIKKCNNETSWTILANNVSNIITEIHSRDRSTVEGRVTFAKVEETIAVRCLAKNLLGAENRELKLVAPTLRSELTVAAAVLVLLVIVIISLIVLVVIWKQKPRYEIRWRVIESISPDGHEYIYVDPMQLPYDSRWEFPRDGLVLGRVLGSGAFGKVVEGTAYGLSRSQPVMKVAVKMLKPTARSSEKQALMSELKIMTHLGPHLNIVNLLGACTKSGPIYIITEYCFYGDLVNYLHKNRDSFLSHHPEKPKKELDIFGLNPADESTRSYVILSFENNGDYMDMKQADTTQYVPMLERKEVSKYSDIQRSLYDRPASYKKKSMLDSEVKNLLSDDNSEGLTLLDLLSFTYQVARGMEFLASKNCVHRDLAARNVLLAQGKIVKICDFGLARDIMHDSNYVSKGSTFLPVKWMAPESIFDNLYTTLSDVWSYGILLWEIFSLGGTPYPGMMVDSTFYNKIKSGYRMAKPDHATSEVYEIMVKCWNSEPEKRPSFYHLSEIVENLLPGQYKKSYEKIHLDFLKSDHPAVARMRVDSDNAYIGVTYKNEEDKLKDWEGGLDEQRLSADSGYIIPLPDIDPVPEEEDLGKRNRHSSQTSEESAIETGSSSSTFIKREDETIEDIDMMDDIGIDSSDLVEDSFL
Source text: as §1

DCAMKL1 = DCAMKL1 (Homo sapiens (Human), UniProt O15075)
Source text: as §1

AURKA = AURKA (Homo sapiens (Human), UniProt O14965)
AURKA, sequence (O14965 whole entry): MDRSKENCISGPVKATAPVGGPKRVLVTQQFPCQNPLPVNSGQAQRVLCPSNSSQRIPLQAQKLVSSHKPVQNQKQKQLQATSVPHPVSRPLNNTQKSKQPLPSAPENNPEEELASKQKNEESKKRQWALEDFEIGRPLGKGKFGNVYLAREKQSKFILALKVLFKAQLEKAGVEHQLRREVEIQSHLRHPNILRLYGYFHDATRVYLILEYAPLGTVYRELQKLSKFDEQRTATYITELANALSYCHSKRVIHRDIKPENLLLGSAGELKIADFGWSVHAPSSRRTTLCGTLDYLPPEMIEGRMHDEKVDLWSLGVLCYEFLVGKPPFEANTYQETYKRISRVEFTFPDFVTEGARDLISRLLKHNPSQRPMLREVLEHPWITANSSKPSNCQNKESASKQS
Source text: as §1

[1] = molecular target: JAK3 (JH1domain-catalytic) (Homo sapiens (Human), UniProt P52333)
Source text: as §1

BMPR2 = BMPR2 (Homo sapiens (Human), UniProt Q13873)
BMPR2, sequence (Q13873 27-1038): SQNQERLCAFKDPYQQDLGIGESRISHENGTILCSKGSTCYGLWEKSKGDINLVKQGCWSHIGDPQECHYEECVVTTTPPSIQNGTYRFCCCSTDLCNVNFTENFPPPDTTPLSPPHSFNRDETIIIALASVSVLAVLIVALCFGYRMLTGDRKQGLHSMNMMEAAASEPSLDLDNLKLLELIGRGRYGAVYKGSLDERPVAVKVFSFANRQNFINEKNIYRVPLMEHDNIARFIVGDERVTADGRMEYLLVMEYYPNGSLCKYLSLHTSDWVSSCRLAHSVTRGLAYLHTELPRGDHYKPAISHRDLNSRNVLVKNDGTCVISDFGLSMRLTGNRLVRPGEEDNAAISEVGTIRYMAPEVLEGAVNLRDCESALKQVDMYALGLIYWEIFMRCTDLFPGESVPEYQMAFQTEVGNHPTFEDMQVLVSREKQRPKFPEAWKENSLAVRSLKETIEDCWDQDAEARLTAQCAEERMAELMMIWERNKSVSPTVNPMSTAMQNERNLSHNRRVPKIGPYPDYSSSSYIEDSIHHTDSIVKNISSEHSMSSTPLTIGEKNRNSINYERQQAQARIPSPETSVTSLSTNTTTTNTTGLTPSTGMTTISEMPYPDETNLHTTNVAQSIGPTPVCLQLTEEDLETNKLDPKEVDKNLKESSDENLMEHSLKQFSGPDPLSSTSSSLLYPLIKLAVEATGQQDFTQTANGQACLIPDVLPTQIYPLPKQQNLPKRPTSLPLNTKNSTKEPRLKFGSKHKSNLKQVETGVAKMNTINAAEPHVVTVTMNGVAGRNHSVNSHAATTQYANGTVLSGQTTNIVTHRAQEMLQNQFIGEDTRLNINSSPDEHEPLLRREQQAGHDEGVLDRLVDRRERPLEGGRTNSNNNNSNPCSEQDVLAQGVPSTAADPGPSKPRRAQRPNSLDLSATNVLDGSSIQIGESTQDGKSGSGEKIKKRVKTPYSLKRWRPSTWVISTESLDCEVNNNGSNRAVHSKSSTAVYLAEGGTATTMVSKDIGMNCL
Source text: as §1

PKAC-alpha = PKAC-alpha (Homo sapiens (Human), UniProt P17612)
Source text: as §1

CHEK1 = CHEK1 (Homo sapiens (Human), UniProt O14757)
Source text: as §1

ABL1-phosphorylated = ABL1-phosphorylated (Homo sapiens (Human), UniProt P00519)
Source text: as §1

RAF1 = RAF1 (Homo sapiens (Human), UniProt P04049)
Source text: as §1

PLK3 = PLK3 (Homo sapiens (Human), UniProt Q9H4B4)
PLK3, sequence (Q9H4B4 whole entry): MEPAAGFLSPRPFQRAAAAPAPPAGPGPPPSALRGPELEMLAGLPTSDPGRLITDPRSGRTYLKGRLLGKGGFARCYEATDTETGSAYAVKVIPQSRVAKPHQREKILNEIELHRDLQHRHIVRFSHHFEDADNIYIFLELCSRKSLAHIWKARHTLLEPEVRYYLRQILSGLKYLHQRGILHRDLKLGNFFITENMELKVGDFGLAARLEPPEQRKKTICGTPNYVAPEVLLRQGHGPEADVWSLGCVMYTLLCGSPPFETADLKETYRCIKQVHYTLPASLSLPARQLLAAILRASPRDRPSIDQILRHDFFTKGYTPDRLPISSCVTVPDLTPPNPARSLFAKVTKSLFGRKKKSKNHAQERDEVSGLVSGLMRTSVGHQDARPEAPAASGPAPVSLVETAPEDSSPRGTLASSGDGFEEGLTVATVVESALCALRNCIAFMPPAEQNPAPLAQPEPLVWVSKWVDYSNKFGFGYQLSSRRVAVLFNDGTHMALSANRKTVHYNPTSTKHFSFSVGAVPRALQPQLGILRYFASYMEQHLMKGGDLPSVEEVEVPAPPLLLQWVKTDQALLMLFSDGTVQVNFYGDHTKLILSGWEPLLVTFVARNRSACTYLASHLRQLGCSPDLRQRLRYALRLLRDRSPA
Source text: as §1

RET = RET (Homo sapiens (Human), UniProt P07949)
Source text: as §1

AKT2 = AKT2 (Homo sapiens (Human), UniProt P31751)
Source text: as §1

CDK7 = CDK7 (Homo sapiens (Human), UniProt P50613)
Source text: as §1

SRC = SRC (Homo sapiens (Human), UniProt P12931)
Source text: as §1

PDPK1 = PDPK1 (Homo sapiens (Human), UniProt O15530)
Source text: as §1

[2] = molecular target: ABL1(E255K)-phosphorylated (Homo sapiens (Human), UniProt P00519, E255K)
Source text: as §1

MKNK2 = MKNK2 (Homo sapiens (Human), UniProt Q9HBH9)
Source text: as §1

MLK1 = MLK1 (Homo sapiens (Human), UniProt P80192)
MLK1, sequence (P80192 whole entry): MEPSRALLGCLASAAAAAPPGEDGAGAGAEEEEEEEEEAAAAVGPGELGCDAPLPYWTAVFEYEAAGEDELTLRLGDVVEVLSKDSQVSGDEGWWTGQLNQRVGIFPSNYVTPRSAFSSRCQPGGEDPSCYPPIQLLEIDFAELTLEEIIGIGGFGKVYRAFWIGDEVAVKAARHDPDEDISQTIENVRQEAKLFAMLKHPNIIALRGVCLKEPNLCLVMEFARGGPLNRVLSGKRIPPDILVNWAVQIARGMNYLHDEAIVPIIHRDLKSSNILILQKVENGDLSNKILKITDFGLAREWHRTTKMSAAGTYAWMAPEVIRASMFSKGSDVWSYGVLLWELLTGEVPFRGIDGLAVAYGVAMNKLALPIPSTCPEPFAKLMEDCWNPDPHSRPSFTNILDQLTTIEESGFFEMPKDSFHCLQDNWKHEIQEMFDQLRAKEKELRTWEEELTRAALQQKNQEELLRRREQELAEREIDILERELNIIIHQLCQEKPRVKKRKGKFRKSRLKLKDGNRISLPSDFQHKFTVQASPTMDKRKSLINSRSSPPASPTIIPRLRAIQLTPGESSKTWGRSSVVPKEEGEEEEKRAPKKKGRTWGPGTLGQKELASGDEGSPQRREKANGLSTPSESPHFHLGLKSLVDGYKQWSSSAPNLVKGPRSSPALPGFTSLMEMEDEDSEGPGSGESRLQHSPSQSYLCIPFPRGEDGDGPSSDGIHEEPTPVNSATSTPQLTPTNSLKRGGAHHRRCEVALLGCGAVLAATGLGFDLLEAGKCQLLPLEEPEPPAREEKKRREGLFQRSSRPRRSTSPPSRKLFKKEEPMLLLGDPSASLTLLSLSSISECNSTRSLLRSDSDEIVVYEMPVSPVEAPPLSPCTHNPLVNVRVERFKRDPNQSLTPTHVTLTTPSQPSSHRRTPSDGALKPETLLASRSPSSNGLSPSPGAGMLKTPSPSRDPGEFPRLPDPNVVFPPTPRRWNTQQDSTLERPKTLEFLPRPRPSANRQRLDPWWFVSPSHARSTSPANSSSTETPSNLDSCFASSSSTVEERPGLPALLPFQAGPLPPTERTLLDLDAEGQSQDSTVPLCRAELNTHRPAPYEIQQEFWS
Source text: as §1

ERBB4 = ERBB4 (Homo sapiens (Human), UniProt Q15303)
Source text: as §1

TIE2 = TIE2 (Homo sapiens (Human), UniProt Q02763)
Source text: as §1

GSK3B = GSK3B (Homo sapiens (Human), UniProt P49841)
Source text: as §1

CSNK1G2 = CSNK1G2 (Homo sapiens (Human), UniProt P78368)
Source text: as §1

p38-beta = p38-beta (Homo sapiens (Human), UniProt Q15759)
Source text: as §1

IKK-beta = IKK-beta (Homo sapiens (Human), UniProt O14920)
Source text: as §1

[3] = molecular target: JAK2 (JH1domain-catalytic) (Homo sapiens (Human), UniProt O60674)
Source text: as §1

VEGFR2 = VEGFR2 (Homo sapiens (Human), UniProt P35968)
Source text: as §1

FGFR3 = FGFR3 (Homo sapiens (Human), UniProt P22607)
Source text: as §1

ZAP70 = ZAP70 (Homo sapiens (Human), UniProt P43403)
Source text: as §1

JNK1 = JNK1 (Homo sapiens (Human), UniProt P45983)
Source text: as §1

PIM2 = PIM2 (Homo sapiens (Human), UniProt Q9P1W9)
PIM2, sequence (Q9P1W9 whole entry): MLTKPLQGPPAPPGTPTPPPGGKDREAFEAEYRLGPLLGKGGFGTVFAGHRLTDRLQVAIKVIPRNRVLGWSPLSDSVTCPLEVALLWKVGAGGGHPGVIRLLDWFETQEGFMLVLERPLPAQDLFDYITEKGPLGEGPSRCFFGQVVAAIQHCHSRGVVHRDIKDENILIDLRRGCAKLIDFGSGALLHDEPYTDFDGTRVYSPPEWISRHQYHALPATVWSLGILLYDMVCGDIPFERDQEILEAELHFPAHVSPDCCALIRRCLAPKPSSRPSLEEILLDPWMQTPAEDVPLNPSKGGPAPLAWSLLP
Source text: as §1

KIT (D816V) = KIT (D816V) (Homo sapiens (Human), UniProt P10721, D816V)
Source text: as §1

[4] = molecular target: TYK2 (JH1domain-catalytic) (Homo sapiens (Human), UniProt P29597)
Source text: as §1

PAK2 = PAK2 (Homo sapiens (Human), UniProt Q13177)
PAK2, sequence (Q13177 whole entry): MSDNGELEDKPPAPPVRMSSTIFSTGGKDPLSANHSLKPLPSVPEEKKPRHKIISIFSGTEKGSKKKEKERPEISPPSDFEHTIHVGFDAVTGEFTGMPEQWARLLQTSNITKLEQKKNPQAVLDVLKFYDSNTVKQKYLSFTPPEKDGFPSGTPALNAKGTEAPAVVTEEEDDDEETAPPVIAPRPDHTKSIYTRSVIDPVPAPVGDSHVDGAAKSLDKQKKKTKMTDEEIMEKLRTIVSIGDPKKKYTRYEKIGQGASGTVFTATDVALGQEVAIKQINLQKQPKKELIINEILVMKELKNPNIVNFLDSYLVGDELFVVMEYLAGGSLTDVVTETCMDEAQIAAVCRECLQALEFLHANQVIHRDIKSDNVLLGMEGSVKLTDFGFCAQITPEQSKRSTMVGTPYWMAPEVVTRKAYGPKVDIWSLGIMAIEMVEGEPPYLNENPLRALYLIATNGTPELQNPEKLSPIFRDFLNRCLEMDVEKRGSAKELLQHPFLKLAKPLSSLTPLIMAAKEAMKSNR
Source text: as §1

ERK1 = ERK1 (Homo sapiens (Human), UniProt P27361)
Source text: as §1

COc1cc2c(Oc3ccc(NC(=O)C4(C(=O)Nc5ccc(F)cc5)CC4)cc3F)ccnc2cc1OCCCCCC(=O)NO [Example 13, N1′-[3-fluoro-4-[[7-[6-(hydroxyamino)-6-oxohexyloxy]-6-methoxy-4-quinolyl]oxy]phenyl]-N1-(4-fluorophenyl)cyclopropane-1,1-dicarboxamide]
% Ctrl@1000 nM (JNK2): 62 % Ctrl | % Ctrl@1000 nM (CDK11): 1.2 % Ctrl | % Ctrl@1000 nM (PLK4): 0.55 % Ctrl | % Ctrl@1000 nM (PDGFRA): 1.8 % Ctrl | % Ctrl@1000 nM (DCAMKL1): 100 % Ctrl | % Ctrl@1000 nM (AURKA): 5.2 % Ctrl | % Ctrl@1000 nM [1]: 76 % Ctrl | % Ctrl@1000 nM (BMPR2): 100 % Ctrl | % Ctrl@1000 nM (PKAC-alpha): 100 % Ctrl | % Ctrl@1000 nM (CHEK1): 96 % Ctrl | % Ctrl@1000 nM (ABL1-phosphorylated): 4.8 % Ctrl | % Ctrl@1000 nM (RAF1): 53 % Ctrl | % Ctrl@1000 nM (PLK3): 100 % Ctrl | % Ctrl@1000 nM (RET): 0 % Ctrl | % Ctrl@1000 nM (AKT2): 100 % Ctrl | % Ctrl@1000 nM (CDK7): 5.8 % Ctrl | % Ctrl@1000 nM (SRC): 0.15 % Ctrl | % Ctrl@1000 nM (PDPK1): 87 % Ctrl | % Ctrl@1000 nM [2]: 7.8 % Ctrl | % Ctrl@1000 nM (MKNK2): 0.1 % Ctrl | % Ctrl@1000 nM (MLK1): 32 % Ctrl | % Ctrl@1000 nM (ERBB4): 17 % Ctrl | % Ctrl@1000 nM (TIE2): 0.55 % Ctrl | % Ctrl@1000 nM (GSK3B): 100 % Ctrl | % Ctrl@1000 nM (CSNK1G2): 99 % Ctrl | % Ctrl@1000 nM (p38-beta): 78 % Ctrl | % Ctrl@1000 nM (IKK-beta): 78 % Ctrl | % Ctrl@1000 nM [3]: 64 % Ctrl | % Ctrl@1000 nM (VEGFR2): 1 % Ctrl | % Ctrl@1000 nM (FGFR3): 64 % Ctrl | % Ctrl@1000 nM (ZAP70): 80 % Ctrl | % Ctrl@1000 nM (JNK1): 100 % Ctrl | % Ctrl@1000 nM (PIM2): 100 % Ctrl | % Ctrl@1000 nM (KIT (D816V)): 2.2 % Ctrl | % Ctrl@1000 nM [4]: 98 % Ctrl | % Ctrl@1000 nM (PAK2): 76 % Ctrl | % Ctrl@1000 nM (ERK1): 94 % Ctrl
